Laboratory results from patent publication US20090028830A1, “Preparation of multipotent stem cells and the use thereof” (priority 2005, published 2009).

Target: T1, PKCβ2 (Homo sapiens, UniProt P05771)
T1 construct: mononucleated cells constitutively expressed PKC isoforms α, β1, β2, γ, l/λ and ζ; endogenous in cells; host or cells: mononucleated cells (monocytes)
Assay: PKC isoform activation/translocation in mononucleated cells during P-stem cell differentiation
Format: cell-based
Conditions: mononucleated cells pre-treated with Go6976 (1 μM) 30 minutes at 37° C., then Bryostatin-1 (10 nM) at designated time intervals; combined treatment; FIG. 4
Method: The constitutively expressed PKC isoforms in mononucleated cells are detected by Western Blot analysis with each PKC isoform-specific antibodies. […] In the FIG. 1, Mo and pc represents mononucleated cell and PKC positive cell lysate, respectively. To examine the specific activation of PKC isoform(s) iii the differentiation of P-stem cells, mononucleated cells are pre-treated with Go6976 (1 μM) for 30 minutes at 37° C. and then incubated with Brvostatin-1 (10 nM) at designated time intervals. […] Therefore, any substances stimulating the activation of PKCβ2 are capable of inducing the differentiation of P-stem cells.

T1 sequence (P05771 1-673 isoform P05771-2): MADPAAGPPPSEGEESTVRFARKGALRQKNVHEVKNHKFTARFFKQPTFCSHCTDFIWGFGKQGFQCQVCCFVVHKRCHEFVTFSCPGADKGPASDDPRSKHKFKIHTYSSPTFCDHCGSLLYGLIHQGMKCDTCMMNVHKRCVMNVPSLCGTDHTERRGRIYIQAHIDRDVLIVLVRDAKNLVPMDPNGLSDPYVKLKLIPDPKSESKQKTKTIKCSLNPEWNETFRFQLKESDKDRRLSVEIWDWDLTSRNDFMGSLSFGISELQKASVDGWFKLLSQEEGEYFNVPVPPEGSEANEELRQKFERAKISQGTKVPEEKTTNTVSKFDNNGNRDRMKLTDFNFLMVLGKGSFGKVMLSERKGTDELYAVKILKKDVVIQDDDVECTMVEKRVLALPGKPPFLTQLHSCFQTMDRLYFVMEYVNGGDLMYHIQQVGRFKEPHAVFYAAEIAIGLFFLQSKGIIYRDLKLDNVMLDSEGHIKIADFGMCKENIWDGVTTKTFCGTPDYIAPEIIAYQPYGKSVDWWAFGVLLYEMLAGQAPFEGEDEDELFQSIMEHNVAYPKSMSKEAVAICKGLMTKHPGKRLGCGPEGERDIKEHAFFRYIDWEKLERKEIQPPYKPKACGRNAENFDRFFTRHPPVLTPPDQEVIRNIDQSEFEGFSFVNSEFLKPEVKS

SMILES	specific activation of PKC isoform(s) (translocation from cytosol to plasma membrane)
Cn1c2ccccc2c2c3c(c4c5ccccc5n(CCC#N)c4c21)CNC3=O [Go6976]	only PKCβ2 is activated and translocates from cytosol to plasma membrane
CCC/C=C/C=C/C(=O)O[C@H]1/C(=C/C(=O)OC)C[C@H]2C[C@H]([C@@H](C)O)OC(=O)C[C@H](O)C[C@@H]3C[C@H](OC(C)=O)C(C)(C)[C@](O)(C[C@@H]4C/C(=C/C(=O)OC)C[C@H](/C=C/C(C)(C)[C@]1(O)O2)O4)O3 [Brvostatin-1, Bryostatin-1]	only PKCβ2 is activated and translocates from cytosol to plasma membrane
